# Literature values in publication PMC5774433 (MedChemComm, 2017).
# Test system: menin
smiles,measurement,value
CC1(C)CN=C(N2CCN(c3ncnc4sc(CC(F)(F)F)cc34)CC2)S1 [MI-2-2],increase in the binding affinity compared to its non-fluorinated counterpart,over 20 fold
